Here are results for five molecules from US20200107546A1, “METHODS AND COMPOSITIONS FOR CONTROLLING UNDESIRED VEGETATION SUCH AS INVASIVE ANNUAL GRASSES” (priority 2018, published 2020).

Series [1] has as its system Bromus tectorum (cheatgrass). Briefly: Example 2 post-emergence field application, control of Bromus tectorum. Format: in vivo. To be noted: Plateau 7 oz/A, Esplanade 200SC 7 oz/A, Raptor 6 oz/A, 0.25% NIS. How it is done: (§1) In the following Examples, desirable perennial grasses were treated to control the invasive annual grass Bromus tectorum (cheatgrass) either pre-emergence or post-emergence with either indaziflam, imazapic, imazamox, glyphosate, or combinations thereof. Imazapic, glyphosate, and combinations comprising either imazapic and/or glyphosate were used for purposes of comparison.
(§2) Table 3 summarizes the herbicidal efficacies (% Control), damage caused to desired perennial grasses (% Injury), and cover (% Cover) when the active ingredients of Table 1 were applied to perennial grasses of species Bromus inermis (smooth brome) and Agropyron smithii (western wheatgrass).
(§3) All treatments include 0.25% NIS.
(§4) Imazapic, indaziflam, imazamox, and a combination of indaziflam and imazamox were applied via a backpack research sprayer to perennial grasses to control Bromus tectorum post-emergence.

Series [2] relates to perennial grasses Bromus inermis (smooth brome) and Agropyron smithii (western wheatgrass). The series is described as follows: Example 2 post-emergence field application, injury and cover of desirable perennial grasses. The series is classed as in vivo. How it is done: as §1, §2, §3, §4
The test system of series [3] is perennial grasses Hesperostipa comata (needle-and-thread), Aristida purpurea (purple three-awn) and Bouteloua gracilis (blue grama). The series is described as follows: Example 3 pre-emergence field application, injury and biomass of desirable perennial grasses. The series is classed as in vivo. The protocol:
as §1
(§5) Table 3 summarizes the herbicidal efficacies (% Control) and damage caused to desired perennial grasses (% Injury) during the first year after the active ingredients of Table 1 were applied to perennial grasses of species Hesperostipa comata (needle-and-thread), Aristida purpurea (purple three-awn) and Bouteloua gracilis (blue grama). Table 4 further sets forth the biomass in kilograms per hectare (kg/ha) of Bromus tectorum and perennial grass measured in the first year after treatment.
as §3
(§6) Imazapic, indaziflam, and a combination of indaziflam and imazamox were applied via a backpack research sprayer to desirable perennial grasses to control unwanted Bromus tectorum pre-emergence.

Series [4] deals with Bromus tectorum (cheatgrass). Briefly: Example 3 pre-emergence field application, control and biomass of Bromus tectorum. Format: in vivo. To be noted: for % Control Bromus tectorum / Biomass (kg/ha) Bromus tectorum: first year after treatment, 0.25% NIS. The protocol:
as §1, §5, §3, §6

Series [5] is described as follows: Soil half-life of herbicides. From the text: As used herein, “short-residual” denotes an herbicide having a median soil half-life of no greater than 50 days, such as less than 40 days or less than 30 days.
Imazamox is a short-residual imidazolinone herbicide having a soil half-life of about 20-30 days. Additionally, imazamethabenz methyl is a short-residual imidazolinone herbicide having a soil half-life of about 25-36 days.

The mark [6] stands for this setting: Year 1 after treatment, post-emergence, Plateau 7 oz/A, Esplanade 200SC 7 oz/A, Raptor 6 oz/A, 0.25% NIS.
Setting [7] is: Year 2 after treatment, post-emergence, Plateau 7 oz/A, Esplanade 200SC 7 oz/A, Raptor 6 oz/A, 0.25% NIS.
Setting [8] is: pre-emergence, first year after treatment, Esplanade 200SC 3.5 oz/A, 0.25% NIS.
Where [9] appears, read: pre-emergence, first year after treatment, Esplanade 200SC 5 oz/A, 0.25% NIS.
Setting [10] is: pre-emergence, first year after treatment, Plateau 7 oz/A, Esplanade 200SC 7 oz/A, Raptor 6 oz/A, 0.25% NIS.
Where [11] appears, read: Plateau 7 oz/A, Esplanade 200SC 7 oz/A, Raptor 6 oz/A.
[12] abbreviates: in vivo, 1 year after treatment.

In the case of `Cc1ccc2c(c1)[C@H](Nc1nc(N)nc(C(C)F)n1)[C@@H](C)C2` (mixture of isomers) [Indaziflam, N2-[(1R,2S)-2,3-dihydro-2,6-dimethyl-1H-inden-1-yl]-6-[(1RS)-1-fluoroethyl]-1,3,5-triazine-2,4-diamine], the “% Control Bromus tectorum” value in series [1] (Year 1 after treatment) is listed as 37%; in series [1] (Year 2 after treatment), 93%; in series [4] (Esplanade 200SC 3.5 oz/A), 72%; in series [4] (Esplanade 200SC 5 oz/A), 82%; in series [4] (setting [11]), 80%. Also, the “% Injury Perennial grasses” value is 0% in series [2] (setting [6]); 0% in series [2] (setting [7]); 10% in series [3] (setting [8]); 0% in series [3] (setting [9]); 5% in series [3] (setting [10]). Also, the “% Cover Perennial grasses” value in series [2] (setting [7]) is 72%. Moreover, the “Biomass (kg/ha) Perennial grasses” value stood at 54 kg/ha in series [3] (setting [8]), 63 kg/ha in series [3] (setting [9]) and 75 kg/ha in series [3] (setting [10]). In addition, the Perennial grass biomass in series [3] (pre-emergence, indaziflam alone, span over the rates 3.5, 5 and 7 oz/A) is listed as 54-75 kg/ha. The “Biomass (kg/ha) Bromus tectorum” value is listed as 83 kg/ha in series [4] (Esplanade 200SC 3.5 oz/A), 18 kg/ha in series [4] (Esplanade 200SC 5 oz/A) and 32 kg/ha in series [4] (setting [11]). The “control of invasive Bromus tectorum” value in series [4] (indaziflam alone, span over the rates 3.5, 5 and 7 oz/A) is given as 72-82%.

For `COCc1cnc(C2=NC(C)(C(C)C)C(=O)N2)c(C(=O)O)c1` (racemic) [Imazamox, 2-[(RS)-4-isopropyl-4-methyl-5-oxo-2-imidazolin-2-yl]-5-methoxymethylnicotinic acid], the “% Control Bromus tectorum” value in series [1] (Year 1 after treatment) stood at 98%; in series [1] (Year 2 after treatment) it was 20%. The “% Injury Perennial grasses” value in series [2] (setting [6]) and in series [2] (setting [7]) was 0% each time. The “% Cover Perennial grasses” value in series [2] (setting [7]) is recorded as 63%.

Turning to `Cc1cnc(C2=NC(=O)C(C)(C(C)C)N2)c(C(=O)O)c1` (stereo not drawn) [Imazapic], the “% Control Bromus tectorum” value was 97% in series [1] (Year 1 after treatment), 77% in series [1] (Year 2 after treatment) and 90% in series [4] (setting [11]). Further, in series [2] (setting [7]), the “% Cover Perennial grasses” value is listed as 72%. Also, the “% Injury Perennial grasses” value in series [2] (setting [12]) worked out at 15%; in series [2] (in vivo, 2 year after treatment), 1%; in series [3] (setting [12]), 10%. Moreover, the “Biomass (kg/ha) Perennial grasses” value in series [3] (setting [10]) came to 91 kg/ha. In series [5], this molecule had a Median soil half-life of 120 days. In series [4] (setting [11]), the “Biomass (kg/ha) Bromus tectorum” value is listed as 7 kg/ha.

For the molecule `CC(C)C1(C)N=C(c2ncccc2C(=O)O)NC1=O` (stereo not drawn) [Imazapyr], the Median soil half-life in series [5] amounted to 83 days.

The molecule `CCc1cnc(C2=NC(C)(C(C)C)C(=O)N2)c(C(=O)O)c1` (stereo not drawn) [Imazethapyr] registered a Median soil half-life in series [5] of 75 days.
